# From ChEMBL document CHEMBL1221354, “Synthesis of polyhydroxylated aromatics having amidation of piperazine nitrogen as HIV-1 integrase inhibitor” (Bioorg Med Chem Lett, 2010)
# Target: Human immunodeficiency virus type 1 integrase (Human immunodeficiency virus 1, UniProt Q7ZJM1)
# Test: Inhibition of HIV1 integrase strand transfer activity after 1 hr
# Human immunodeficiency virus type 1 integrase, sequence (Q7ZJM1 whole entry): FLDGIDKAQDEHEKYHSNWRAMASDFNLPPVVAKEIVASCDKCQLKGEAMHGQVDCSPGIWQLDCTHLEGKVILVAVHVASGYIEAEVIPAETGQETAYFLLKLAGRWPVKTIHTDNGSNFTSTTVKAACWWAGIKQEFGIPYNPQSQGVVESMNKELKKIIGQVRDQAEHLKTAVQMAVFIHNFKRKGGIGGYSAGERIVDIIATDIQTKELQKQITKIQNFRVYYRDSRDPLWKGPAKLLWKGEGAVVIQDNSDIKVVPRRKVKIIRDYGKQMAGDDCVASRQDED
row,SMILES,IC50
1,O=C(NCCCN1CCN(C(=O)/C=C/c2ccccc2)CC1)c1cc(O)c(O)c(O)c1,12.8 µM
2,O=C(NCCCN1CCN(C(=O)/C=C/c2ccccc2)CC1)c1ccc(O)c(O)c1,> 100 µM
3,O=C(NCCCN1CCN(C(=O)/C=C/c2ccccc2Cl)CC1)c1cc(O)c(O)c(O)c1,19.3 µM
4,O=C(NCCCN1CCN(C(=O)/C=C/c2ccccc2[N+](=O)[O-])CC1)c1cc(O)c(O)c(O)c1,31.3 µM
5,Cc1ccc(/C=C/C(=O)N2CCN(CCCNC(=O)c3cc(O)c(O)c(O)c3)CC2)cc1,17.5 µM
6,Cc1ccc(/C=C/C(=O)N2CCN(CCCNC(=O)c3ccc(O)c(O)c3)CC2)cc1,> 100 µM
7,O=C(NCCCN1CCN(C(=O)/C=C/c2ccccc2Cl)CC1)c1ccc(O)c(O)c1,> 100 µM
8,O=C(NCCCN1CCN(C(=O)/C=C/c2cccc(O)c2)CC1)c1cc(O)c(O)c(O)c1,15.4 µM
9,O=C(NCCCN1CCN(C(=O)/C=C/c2ccc(Cl)cc2)CC1)c1ccc(O)c(O)c1,> 100 µM
10,O=C(O)C(=O)CC(=O)c1cc(OCc2ccccc2)cc(OCc2ccccc2)c1,0.77 µM
11,O=C(NCCCN1CCN(C(=O)/C=C/c2ccc(Cl)cc2)CC1)c1cc(O)c(O)c(O)c1,24.9 µM
12,O=C(NCCCN1CCN(C(=O)/C=C/c2cccc(O)c2)CC1)c1ccc(O)c(O)c1,> 100 µM
